Measured values taken from publication PMC6367362, “MD001, a Novel Peroxisome Proliferator-activated Receptor α/γ Agonist, Improves Glucose and Lipid Metabolism” (Scientific Reports, 2019).

Target: T1, human HA-PPARγ (Homo sapiens, UniProt P37231)
T1 construct: expressed in transfected cells; host or cells: HEK293
T1 sequence (P37231 1-505): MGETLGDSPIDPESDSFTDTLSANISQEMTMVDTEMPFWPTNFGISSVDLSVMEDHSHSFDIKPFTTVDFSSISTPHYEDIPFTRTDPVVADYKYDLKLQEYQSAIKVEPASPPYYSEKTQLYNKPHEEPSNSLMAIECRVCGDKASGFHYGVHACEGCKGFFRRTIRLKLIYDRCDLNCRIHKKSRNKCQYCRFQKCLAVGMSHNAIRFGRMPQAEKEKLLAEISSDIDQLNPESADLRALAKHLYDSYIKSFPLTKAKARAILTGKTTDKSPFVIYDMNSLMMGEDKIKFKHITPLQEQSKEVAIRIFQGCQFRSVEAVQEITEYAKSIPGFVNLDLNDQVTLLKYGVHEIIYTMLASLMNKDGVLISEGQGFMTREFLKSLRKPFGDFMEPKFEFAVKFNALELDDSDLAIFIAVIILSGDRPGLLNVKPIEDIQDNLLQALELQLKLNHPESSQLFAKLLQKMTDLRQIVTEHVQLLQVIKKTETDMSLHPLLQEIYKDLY
Test: PPRE luciferase activity assay in HEK293 cells transfected with HA-PPARγ
Assay type: cell-based
Set-up: transcriptional activity of PPARγ: dose or concentration left out as unconfirmed
Conditions: HEK293, PPRE-pk-Luc
Experimental: Figure 2 MD001 induces the expression of target genes through PPARα and PPARγ activation. HEK293 cells were transiently co-transfected with human HA-PPARα (A) and HA-PPARγ (B) expression vectors along with the reporter plasmid (PPRE-pk-Luc) or control reporter plasmid (pk-Luc) with Renilla vector for 24 h. Cells were treated with MD001 (10 μM), rosiglitazone (rosi) (10 μM) or WY14643 (WY) (10 μM) for 24 h. Luciferase activity was normalised to Renilla luciferase activity as described in the Methods section. **, vs. vehicle. (C) HepG2 cells were treated with MD001 (10 μM) for 24 h, and total RNA was isolated and synthesised into cDNA. Relative expression was quantitated using qRT-PCR. **, vs. vehicle. (D,E) HepG2 cells were transfected with control siRNA, PPARα siRNA (D), or PPARγ siRNA (E) for 48 h and treated with vehicle, WY14643 (10 μM), rosiglitazone (10 μM) or MD001 (10 μM) for 24 h. Subsequently, cells were harvested for total RNA isolation. Relative expression of target genes was quantitated using qRT-PCR. ^#, vs. control siRNA; ^‡, vs. control siRNA/vehicle; ^§, vs. control siRNA/WY; * and **, vs. control siRNA/MD001. Data represent the mean ± SD of three independent experiments. *P < 0.05, **P < 0.01, ^#P < 0.01, ^‡P < 0.01, and ^§P < 0.01.
For transient transfection, cells were transfected with plasmid DNA constructs by polyethylenimine (PEI, Polysciences, Inc., Warrington, PA, USA) according to the manufacturer’s instructions. Transcription activity assays of PPARα and PPARγ in HEK293 cells were performed by co-transfection of HA-PPARα, HA-PPARγ, and peroxisome proliferator-response element (PPRE) reporter plasmid (PPRE-pk-Luc) or control reporter plasmid (pk-Luc) with Renilla vector for 24 h. […] Luciferase activity was measured with the Dual-Luciferase Reporter Assay System (Promega, Madison, WI, USA) and quantified using GloMax (Promega, USA) according to the manufacturer’s protocol. […]
Luciferase activity was measured as described in the Methods section. […]

For `Cc1c(O)cc(O)c2c(-c3ccccc3)c(C(=O)/C=C/c3ccccc3)c(=O)oc12` [MD001], the “transcription via PPARγ activation (luciferase activity)” value (10 μM, 24 h, vs. vehicle) was “significantly increased” and the “transcriptional activity of PPARγ” value (24 h (Supplementary Fig. S2)) was “promoted simultaneous transcriptional activity”.
